Assay results published in patent US7595330B2, “Benzimidazole thiophene compounds” (SmithKline Beecham Corporation, priority 2005, dated 2009).
pIC50: −log10 of the molar value.

Key:
MDA-MB-468 = test: Cell-Titer-Glo inhibition of cell proliferation, MDA-MB-468; type: cell-based; settings: Homo sapiens, CellTiter-Glo, 72 h
Procedure: (§1) V. Cell-Titer-Glo—Inhibition of Cell Proliferation by PLK1 Inhibitors
(§2) Exponentially growing cell lines of different tumor origins, cultured in appropriate media containing 10% fetal bovine serum at 37° C. in a 5% CO2 incubator were plated at low density (less than 2000 cells/well) in 96-well plates. Twenty four hours post-plating, cells were treated with different concentrations of test compounds ranging from 10 uM to 0.04 nM. Several wells were left untreated as a control. Seventy two hours post-treatment, cell numbers were determined using 50-100 ul per well of CellTiter-Glo (Promega #G7573). Plates were incubated at room temperature for 15 minutes and the chemiluminescent signal was read on the Victor V or Envison 2100 reader.
(§3) The Cell-Titer Glo data are shown in Table 2 below and represent a compilation of several different experiments, each performed using the general parameters outlined above, although minor variations may have been employed in some instances.

MiaPaca = test: Cell-Titer-Glo inhibition of cell proliferation, MiaPaca; type: cell-based; settings: Homo sapiens, MIA PaCa-2, CellTiter-Glo, 72 h
Procedure: as §1, §2, §3

HN5 = test: Cell-Titer-Glo inhibition of cell proliferation, HN5; type: cell-based; settings: Homo sapiens, CellTiter-Glo, 72 h
Procedure: as §1, §2, §3

P388 = test: Cell-Titer-Glo inhibition of cell proliferation, P388; type: cell-based; settings: Mus musculus, CellTiter-Glo, 72 h
Procedure: as §1, §2, §3

[1] = High throughput solubility assay; type: physicochemical; settings: aqueous buffer, pH 7.4, 0.05M phosphate buffer
Procedure: IV. High Throughput Solubility Assay
Two samples are prepared for each compound. One (the standard sample) contains the compound at a fixed concentration of 20 μM in an aqueous/organic mixed solvent cocktail. The other (the test sample) contains the compound at a maximum concentration of 200 μM in pH 7.4, 0.05M phosphate buffer and shaking for 24 h. The test sample is filtered by 0.45μ filter and then spun for 10 min to remove any undissolved solid. HPLC analyses are preformed on these samples. The peak areas are used for computing solubility.

MX-1 = test: Cell-Titer-Glo inhibition of cell proliferation, MX-1; type: cell-based; settings: Homo sapiens, MX1, CellTiter-Glo, 72 h
Procedure: as §1, §2, §3

RKO = test: Methylene blue growth inhibition assay, RKO; type: cell-based; settings: Homo sapiens, methylene blue, 72 h, read-out: RKO IC50
Procedure: (§4) II. Methylene Blue Growth Inhibition Assay—Inhibition of Cell Proliferation by PLK1 Inhibitors
(§5) Generally, exponentially growing cell lines of different tumor origins, cultured in appropriate media containing 10% fetal bovine serum at 37° C. in a 5% CO2 incubator were plated at low density (less than 2000 cells/well) in 96-well plates. […]. Seventy two hours post-treatment, cell numbers were determined using 100 μl per well of methylene blue (Sigma M9140) (0.5% in 50:50 Ethanol:water). Stain was incubated at room temperature for 30 minutes before plates were rinsed and dye solubilized in 1% N-lauroyl sarcosine, sodium salt, (Sigma L5125, in PBS) (further details of a methylene blue assay are described below). Plates were read on a microplate reader, measuring the OD at 620 nm.
(§6) . The data are shown in Table 1 below and represent a compilation of several different experiments, each performed using the general parameters outlined above, although minor variations may have been employed in some instances.
(§7) In one assay, normal human foreskin fibroblasts (HFF), human colon (HCT116, RKO), lung (H460, A549) and breast (MCF7) tumor cell lines were cultured in high glucose DMEM (Life Technologies) containing 10% fetal bovine serum (FBS) at 37° C. in a humidified 5% CO2, 95% air incubator. Cells were harvested using trypsin/EDTA, counted using a haemocytometer, and plated in 100 μL of culture media per well, at the following densities, in a 96-well tissue culture plate (Falcon 3075): HFF 5,000 cells/well, HCT116 3,000 cells/well, RKO 2,500 cells/well, H460 2,500 cells/well, A549 5,000 cells/well, MCF7 4,000 cells/well. The next day, compounds were diluted in low glucose DMEM containing 100 μg/mL gentamicin, at twice the final required concentration, from 10 mM stock solutions in DMSO. 100 μL/well of these dilutions were added to the 100 μL of media currently in the assay plates. Medium containing 0.6% DMSO was added to control wells. The final concentration of DMSO in all wells was 0.3%. Cells were incubated at 37° C., 5% CO2 for 72 h. Medium was removed by aspiration. Cell biomass was estimated by staining cells with 80 μL per well methylene blue (Sigma M9140, 0.5% in 50:50 ethanol:water), and incubation at room temperature for 30-60 min. Stain was removed by aspiration and the plates rinsed by immersion in water, then air-dried. To release stain from the cells, 100 μL of solubilization solution was added (1% N-lauroyl sarcosine, Sodium salt, Sigma L5125, in PBS), and plates were shaken gently for about 30 min. Optical density at 620 nm was measured on a microplate reader. Percent inhibition of cell growth was calculated relative to vehicle treated control wells. […].

H1299 = test: Cell-Titer-Glo inhibition of cell proliferation, H1299; type: cell-based; settings: Homo sapiens, NCI-H1299, CellTiter-Glo, 72 h
Procedure: as §1, §2, §3

PANC-1 = test: Cell-Titer-Glo inhibition of cell proliferation, PANC-1; type: cell-based; settings: Homo sapiens, CellTiter-Glo, 72 h
Procedure: as §1, §2, §3

MV522 = test: Cell-Titer-Glo inhibition of cell proliferation, MV522; type: cell-based; settings: CellTiter-Glo, 72 h
Procedure: as §1, §2, §3

MCF7 [2] = test: Methylene blue growth inhibition assay, MCF7; type: cell-based; settings: Homo sapiens; methylene blue, 72 h, MCF7; read-out: MCF7 IC50
Procedure: as §4, §5, §6, §7

MCF7 [3] = test: Cell-Titer-Glo inhibition of cell proliferation, MCF7; type: cell-based; settings: Homo sapiens, CellTiter-Glo, 72 h
Procedure: as §1, §2, §3

human plasma proteins = test: Protein binding to human plasma proteins using equilibrium dialysis; type: in vitro ADME; settings: pH 7.4, equilibrium dialysis 6 h, 37° C.
Procedure: III. Determination of Protein Binding to Human Plasma Proteins Using Equilibrium Dialysis
96 Well Plate (High Throughput Dialysis): Stock solutions of compounds were spiked into human plasma at a target concentration of 2000 ng/mL. The mixture was inverted gently several times to insure homogeneity and triplicate 50 μL aliquots were collected to verify initial concentrations. Following assembly of dialysis plate (HTDialysis membrane strips, molecular weight cut off limit of 12,000-14,000 daltons), spiked plasma (150 μL) was placed in the donor compartment of the well and Phosphate Buffered Saline pH 7.4 (150 μL) in the receiver compartment. Eight wells were set up per compound and plasma type. Plate was placed in a 37° C. incubator on a plate shaker. Following the 6 h incubation period, the plate was removed. Single 50 μL aliquots from each donor and receiver compartment (per well) were analyzed. Sample analysis was by LC/MS/MS (results reported as Drug Peak Area/Internal Standard Peak Area ratios). Protein binding assay can also be performed using dialysis cells instead of HT Dialysis 96 well plates. In Table 1, % Protein Binding, +=>98%; ++=95-98%: +++=<95%.

With `C[C@@H](Oc1cc(-n2cnc3ccc(CN4CCN(C)CC4)cc32)sc1C(N)=O)c1ccccc1C(F)(F)F` [Example 3, 5-{6-[(4-Methylpipiperazin-1-yl)methyl]-1H-benzimidazol-1-yl}-3-{(1R)-1-[2-(trifluoromethyl)phenyl]ethoxy}thiophene-2-carboxamide] as the molecule, how does the pIC50 (MDA-MB-468) read?
The pIC50 was greater than 6.30.

And the pIC50 (MiaPaca)?
The pIC50 was greater than 6.30.

And the pIC50 (HN5)?
The pIC50 was greater than 6.30.

And the pIC50 (P388)?
Its pIC50 is greater than 6.30.

What about the solubility at 24 h [1] of the same molecule?
Its solubility at 24 h is greater than 100 µM.

And the pIC50 (MX-1)?
Its pIC50 is greater than 6.30.

What about the pIC50 (RKO) of the same molecule?
The pIC50 was greater than 7.00.

And the pIC50 (H1299)?
Its pIC50 is greater than 6.30.

And the pIC50 (PANC-1)?
The pIC50 was greater than 6.30.

What about the pIC50 (MV522) of the same molecule?
The pIC50 was greater than 6.30.

What about the pIC50 (MCF7 [2]) of the same molecule?
Its pIC50 is greater than 7.00.

What about the pIC50 (MCF7 [3]) of the same molecule?
Its pIC50 is greater than 6.30.

And the fraction unbound at 6 h, 2000 ng/mL (human plasma proteins)?
Its fraction unbound at 6 h, 2000 ng/mL is greater than 0.05.
